Assay results published in ChEMBL document CHEMBL4680162, “Synthesis and pharmacological evaluation of chlorin derivatives for photodynamic therapy of cholangiocarcinoma” (Eur J Med Chem, 2020).
Calls of active or inactive are those of the source. No cut-off for these calls is given here.

Experiments:
[1] = Induction of apoptosis in human QBC939 cells assessed as early apoptotic cells at 2 uM in presence of 2J/cm2 light irradiation measured after 24 hrs by annexin V-FITC and propidium iodide staining based flow cytometric analysis (reference value: 0.01 %); format: functional
[2] = Phototoxicity in ICR mouse assessed as neck skin weight at 1 mg/kg, iv followed by 10 mW/cm2 light irradiation for 10 mins at 1 day after drug challenge and measured after 1 day of light irradiation by H and E staining based microscopic analysis (reference value: 36.5 +/- 2.4 mg); format: organism-based; settings: in vivo, 48 h, time 2 day
[3] = Absorption property of the compound in DMF assessed as Q band log absorption coefficient by UV-visible spectrophotometric method; format: physicochemical
[4] = Phototoxicity in ICR mouse assessed as ear weight at 1 mg/kg, iv followed by 10 mW/cm2 light irradiation for 10 mins at 1 day after drug challenge and measured after 1 day of light irradiation by H and E staining based microscopic analysis (reference value: 12.4 +/- 1.5 mg); format: organism-based; settings: in vivo, 48 h, time 2 day
[5] = Phototoxicity against human QBC939 cells assessed as reduction in cell viability irradiated with 4 J/cm2 of 650 nanometer laser light preincubated for 24 hrs in dark and measured after 24 hrs by MTT assay; format: functional, cell-based; settings: QBC939, light or radiation study
[6] = Phototoxicity against human QBC939 cells assessed as reduction in cell viability irradiated with 1 J/cm2 of 650 nanometer laser light preincubated for 24 hrs in dark and measured after 24 hrs by MTT assay; format: functional, cell-based; settings: QBC939, light or radiation study
[7] = Induction of apoptosis in human QBC939 cells assessed as late apoptotic cells at 2 uM in presence of 2J/cm2 light irradiation measured after 24 hrs by annexin V-FITC and propidium iodide staining based flow cytometric analysis (reference value: 0.01 %); format: functional
[8] = Phototoxicity in ICR mouse assessed as back skin weight at 1 mg/kg, iv followed by 10 mW/cm2 light irradiation for 10 mins at 1 day after drug challenge and measured after 1 day of light irradiation by H and E staining based microscopic analysis (reference value: 34.3 +/- 2.1 mg); format: organism-based; settings: in vivo, 48 h, time 2 day
[9] = Phototoxicity in BALB/c nude mouse xenografted with QBC939 cells assessed as change in heart at 1 mg/kg, iv followed by laser light irradiation at 120 J/cm2 measured after 1 day of light irradiation by H and E staining based histological analysis; format: organism-based; settings: in vivo, 24 h
QBC939 = assay: Photodynamic antitumor activity against human QBC939 cells xenografted in BALB/c nude mouse assessed as morphological change in tumor tissue at 1 mg/kg, iv followed by laser light irradiation at 120 J/cm2 measured after 1 day of light irradiation by H and E staining based histological analysis; format: functional, organism-based
[10] = Drug uptake in nude mouse xenografted with QBC939 cells assessed as drug level in tumor tissue at 1 mg/kg, iv measured after 24 hrs by fluorescence imaging assay; format: ADME, organism-based, Neoplasm; settings: in vivo
[11] = Induction of apoptosis in human QBC939 cells assessed as late apoptotic cells at 2 uM in presence of 2J/cm2 light irradiation measured after 2 hrs by annexin V-FITC and propidium iodide staining based flow cytometric analysis (reference value: 0.01 %); format: functional
[12] = Induction of apoptosis in human QBC939 cells assessed as necrotic cells at 2 uM in presence of 2J/cm2 light irradiation measured after 2 hrs by annexin V-FITC and propidium iodide staining based flow cytometric analysis (reference value: 0.02 %); format: functional
[13] = Induction of apoptosis in human QBC939 cells assessed as viable cells at 2 uM in presence of 2J/cm2 light irradiation measured after 24 hrs by annexin V-FITC and propidium iodide staining based flow cytometric analysis (reference value: 99.6 %); format: functional; settings: QBC939, light or radiation study, read-out: Activity
[14] = Drug uptake in nude mouse xenografted with QBC939 cells assessed as drug level in tumor tissue at 1 mg/kg, iv measured after 8 hrs by fluorescence imaging assay; format: ADME, organism-based, Neoplasm; settings: in vivo

## COC(=O)C1(C(=O)O)C2c3nc(c(-c4ccccc4)c4ccc([nH]4)c(-c4ccccc4)c4nc(c(-c5ccccc5)c5ccc([nH]5)c3-c3ccccc3)C=C4)C21 (stereo not given)
[1]
  Activity: 20.99%
[2]
  Activity: 37.9 mg
[3]
  Activity: 3.02
[4]
  Activity: 12.8 mg
[5]
  IC50: 780 nM
[6]
  IC50: 1910 nM
[7]
  Activity: 69.12%
[8]
  Activity: 35.1 mg
[9]
  Activity: Non-Toxic
QBC939
  Activity: Active
[10]
  Drug uptake: Active
[11]
  Activity: 14.73%
[12]
  Activity: 10.73%
[13]
  viability at 2 µM: 2.1%
[14]
  Drug uptake: Active
